In the supplement of paper PMC10307832:

Key:
Experiment in all cases: relative viability (nuclei count vs DMSO), 5 days (fraction); higher = more cells survive
[1] = compound: C1=CC2=C(C=C(C(=C2N=C1)O)N=NC3=CC4=C(C=C3)C=C(C=C4)S(=O)(=O)O)S(=O)(=O)O + Nc1nc2[nH]cc(CCc3ccc(C(=O)N[C@@H](CCC(=O)O)C(=O)O)cc3)c2c(=O)[nH]1 [Pemetrexed] (partner 0.2 µM)
Method in brief: (§1)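 Lung cancer cell lines in 1536-well plates got either a single drug or a fixed anchor-drug dose together with five library-drug doses (not always all listed) in √10 steps, by pin tool, on the day after seeding. Nuclei were counted after 5 days, and relative viability is the treated-to-vehicle ratio of nuclei counts. Values are medians of duplicate plates.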

AT-7519 + Trametinib = compound: O=C(NC1CCNCC1)c1n[nH]cc1NC(=O)c1c(Cl)cccc1Cl [AT-7519] + CC(=O)Nc1cccc(-n2c(=O)n(C3CC3)c(=O)c3c(Nc4ccc(I)cc4F)n(C)c(=O)c(C)c32)c1 [Trametinib] (partner 0.02 µM)
Method in brief: as §1

AT-7519 + Foretinib = compound: O=C(NC1CCNCC1)c1n[nH]cc1NC(=O)c1c(Cl)cccc1Cl [AT-7519] + COc1cc2c(Oc3ccc(NC(=O)C4(C(=O)Nc5ccc(F)cc5)CC4)cc3F)ccnc2cc1OCCCN1CCOCC1 [Foretinib] (partner 0.25 µM)
Method in brief: as §1

AT-7519 + Pemetrexed = compound: O=C(NC1CCNCC1)c1n[nH]cc1NC(=O)c1c(Cl)cccc1Cl [AT-7519] + Nc1nc2[nH]cc(CCc3ccc(C(=O)N[C@@H](CCC(=O)O)C(=O)O)cc3)c2c(=O)[nH]1 [Pemetrexed] (partner 0.2 µM)
Method in brief: as §1

Cell Line	relative viability ([1]; first compound 0.08 µM)	relative viability ([1]; first compound 0.253 µM)	relative viability ([1]; first compound 0.8 µM)	relative viability ([1]; first compound 2.53 µM)	relative viability ([1]; first compound 8 µM)	relative viability (AT-7519 + Trametinib; first compound 0.01 µM)	relative viability (AT-7519 + Trametinib; first compound 0.03162 µM)	relative viability (AT-7519 + Trametinib; first compound 0.3162 µM)	relative viability (AT-7519 + Trametinib; first compound 1 µM)	relative viability (AT-7519 + Foretinib; first compound 0.01 µM)	relative viability (AT-7519 + Foretinib; first compound 0.03162 µM)	relative viability (AT-7519 + Foretinib; first compound 0.3162 µM)	relative viability (AT-7519 + Foretinib; first compound 1 µM)	relative viability (AT-7519 + Pemetrexed; first compound 0.01 µM)	relative viability (AT-7519 + Pemetrexed; first compound 0.03162 µM)	relative viability (AT-7519 + Pemetrexed; first compound 0.3162 µM)	relative viability (AT-7519 + Pemetrexed; first compound 1 µM)
NCI-H2342	0.82	0.791	0.766	0.807	0.765	0.779	0.784	0.809	0.817	1.02	0.972	0.977	0.965	0.789	0.743	0.762	0.687
HCC-15	0.221	0.229	0.213	0.235	0.24	0.404	0.371	0.374	0.24	1.11	0.941	0.914	0.403	0.217	0.225	0.205	0.204
A-427	0.996	1.02	0.929	1.07	0.996	0.728	0.71	0.716	0.338	1.16	0.968	1.06	0.384	1.06	0.965	1.07	1.01
NCI-H2228	0.305	0.312	0.328	0.334	0.324	0.441	0.426	0.421	0.247	0.833	0.789	0.814	0.595	0.404	0.395	0.313	0.265
NCI-H1734	0.387	0.43	0.417	0.421	0.443	0.644	0.629	0.618	0.31	0.897	0.809	0.718	0.429	0.426	0.435	0.383	0.366
PC-14	0.127	0.129	0.145	0.132	0.11	0.681	0.771	0.545	0.0618	0.889	0.856	0.928	0.915	0.138	0.135	0.118	0.103
NCI-H1915	0.523	0.464	0.473	0.461	0.446	0.58	0.304	0.316	0.118	1.07	1.1	1.07	0.807	0.5	0.494	0.516	0.501
NCI-H1666	0.824	0.85	0.827	0.891	0.892	0.871	0.842	0.811	0.593	0.839	0.77	0.927	0.647	0.871	0.777	0.828	0.651
HCC-366	0.162	0.14	0.157	0.145	0.163	0.323	0.281	0.316	0.17	0.994	0.896	0.941	0.717	0.178	0.162	0.185	0.216
SK-MES-1	0.972	0.953	0.932	0.942	0.882	0.535	0.607	0.537	0.461	0.907	1.09	0.735	0.919	1.12	1.04	0.982	0.798
SW 1573	0.881	0.817	0.78	0.838	0.257	0.603	0.494	0.37	0.109	0.797	0.918	0.722	0.543	0.745	0.833	0.401	0.126
NCI-H661	0.891	0.925	0.893	0.945	0.901	0.549	0.565	0.508	0.203	1.05	0.875	1.05	0.468	0.945	0.953	0.99	0.262
PC-3 [JPC-3]	1.07	1.03	1.04	1.16	0.999	0.715	0.667	0.767	0.53	1.03	1.05	1.03	1.06	1.05	1.1	1.11	1.47
NCI-H1623	–	–	–	–	–	–	–	–	–	0.86	0.834	0.997	0.711	–	–	–	–
Calu-6	–	–	–	–	–	–	–	–	–	0.903	0.917	0.865	0.641	–	–	–	–
LC-2-ad	0.28	0.278	0.265	0.261	0.274	0.892	0.936	0.933	0.506	0.975	0.984	0.85	0.452	0.263	0.276	0.28	0.268
CAL-12T	1.25	1.18	1.14	1.18	1.13	0.403	0.289	0.217	0.131	1.17	1.19	0.814	0.178	1.23	1.11	0.584	0.147
RERF-LC-KJ	0.488	0.483	0.464	0.463	0.457	0.865	0.864	0.758	0.423	0.939	0.813	0.879	0.921	0.448	0.473	0.414	0.303
NCI-H1650	0.433	0.346	0.368	0.389	0.4	0.634	0.538	0.449	0.223	1.15	1.12	0.914	0.295	0.376	0.35	0.323	0.197
BEN	0.745	0.736	0.76	0.867	0.61	0.99	1.04	0.885	1.11	0.719	0.636	0.922	0.8	0.713	0.766	0.823	0.706

Cell Line	relative viability ([1]; first compound 0.08 µM)	relative viability ([1]; first compound 0.253 µM)	relative viability ([1]; first compound 0.8 µM)	relative viability ([1]; first compound 2.53 µM)	relative viability ([1]; first compound 8 µM)	relative viability (AT-7519 + Trametinib; first compound 0.01 µM)	relative viability (AT-7519 + Trametinib; first compound 0.03162 µM)	relative viability (AT-7519 + Trametinib; first compound 0.3162 µM)	relative viability (AT-7519 + Trametinib; first compound 1 µM)	relative viability (AT-7519 + Foretinib; first compound 0.01 µM)	relative viability (AT-7519 + Foretinib; first compound 0.03162 µM)	relative viability (AT-7519 + Foretinib; first compound 0.3162 µM)	relative viability (AT-7519 + Foretinib; first compound 1 µM)	relative viability (AT-7519 + Pemetrexed; first compound 0.01 µM)	relative viability (AT-7519 + Pemetrexed; first compound 0.03162 µM)	relative viability (AT-7519 + Pemetrexed; first compound 0.3162 µM)	relative viability (AT-7519 + Pemetrexed; first compound 1 µM)
EMC-BAC-2	0.417	0.433	0.433	0.458	0.421	0.92	0.835	0.845	0.376	0.977	0.998	1.02	0.794	0.464	0.442	0.438	0.514
LU99A	0.161	0.401	0.183	0.181	0.19	0.67	0.53	0.52	0.24	0.873	0.771	0.801	0.556	0.215	0.199	0.165	0.198
ABC-1	–	–	–	–	–	–	–	–	–	0.937	1.09	0.962	0.541	–	–	–	–
NCI-H2170	0.288	0.281	0.284	0.266	0.251	0.994	0.868	0.91	0.708	1.09	1.03	1.04	0.958	0.263	0.276	0.241	0.25
NCI-H1299	–	–	–	–	–	–	–	–	–	1.13	1.06	1.1	1.15	–	–	–	–
EBC-1	–	–	–	–	–	–	–	–	–	0.101	0.106	0.0999	0.0905	–	–	–	–
NCI-H2347	0.44	0.474	0.444	0.403	0.343	0.263	0.256	0.274	0.254	0.738	0.902	0.8	0.819	0.462	0.367	0.398	0.453
NCI-H1993	0.511	0.539	0.6	0.589	0.617	0.445	0.496	0.474	0.453	0.786	0.842	0.809	0.594	0.536	0.581	0.522	0.532
NCI-H322M	0.663	0.663	0.608	0.587	0.669	0.531	0.444	0.539	0.525	1.01	0.932	0.511	0.456	0.563	0.623	0.469	0.543
NCI-H838	0.264	0.251	0.235	0.234	0.246	0.475	0.443	0.529	0.0788	1.07	1.02	0.886	0.527	0.247	0.246	0.281	0.115
NCI-H1648	–	0.695	–	–	0.855	0.39	–	0.366	0.335	–	–	–	–	0.806	–	0.666	0.691
NCI-H1792	1.02	0.764	0.821	0.821	0.897	0.399	0.4	0.506	0.225	–	–	–	–	0.612	0.645	0.666	0.919
HCC-44	0.703	0.692	0.649	0.675	0.728	1.1	1.04	1.06	0.716	–	–	–	–	0.622	0.696	0.65	0.703
A549	–	–	–	–	–	–	–	–	–	0.925	0.984	0.852	0.845	–	–	–	–
NCI-H1563	0.776	0.744	0.726	0.79	0.376	–	–	–	–	0.846	0.867	0.948	0.957	0.743	0.868	0.81	0.807
NCI-H522	0.949	1.03	1.04	0.971	1.09	0.717	0.835	0.757	0.717	–	–	–	–	0.992	0.943	1.03	0.929
IA-LM	–	–	–	–	–	–	–	–	–	1.25	1.53	1.08	0.918	–	–	–	–
NCI-H1703	–	–	–	–	–	–	–	–	–	0.335	0.317	0.353	0.331	–	–	–	–
NCI-H727	–	–	–	–	–	0.34	0.414	0.37	0.384	1.14	0.691	0.769	0.297	–	–	–	–
